Assay results reported in patent US6670189B2, “Fumonisin detoxification compositions and methods” (priority 1994, dated 2003).

How the values were obtained:
maize coleoptiles = test: Effect of FB1 and AP1 on maize coleoptiles; set-up: key to Injury of maize coleoptiles: + = brown necrotic discoloration of coleoptile; − = no symptoms (same as water control); settings: for Injury of maize coleoptiles: 2 days dark at 28° C. then 3 days light
Experimental: Maize coleoptiles from 4 day dark-grown germinated maize seeds were excised above the growing point and placed in 96-well microtiter plates in the presence of 60 microliters of sterile distilled water containing FB1 or AP1 at approximately equimolar concentrations of 1.5, 0.5, 0.15, 0.05, 0.015, 0.005, 0.0015, or 0.0005 millimolar, along with water controls. After 2 days in the dark at 28° C. the coleoptiles were placed in the light and incubated another 3 days.

AP1 catabolase = AP1 catabolase activity: modification of amine-containing substrates by crude cell-free extract; format: biochemical, Exophiala spinifera; settings: for modification by the crude extract (catabolase): cell-free extract of substrate-induced Exophiala spinifera, TLC on C18 silica
Experimental: A cell-free extract that contains the catabolase activity was obtained by subjecting substrate-induced Exophiala spinifera cells to disruption using a bead beater in sodium acetate buffer, pH 5.2, and recovering the cell-free supernatant by centrifugation and 0.45 micron filtration. Catabolic activity is assayed by incubating extracts with AP1 (hydrolyzed fumonisin B1 backbone) or 14C-labelled AP1 with the extract and evaluating by TLC on C18 silica. The product AP1-N1 has a lower Rf than AP1 and is detected either by radiolabel scan or by H2SO4 spray/charring of the TLC plate. […] Other amine-containing substrates were tested for modification by the crude extract.

[1] = system: maize tissue cultured cells (Black Mexican Sweet, BMS); settings: for concentration at which growth of BMS cells was inhibited: liquid culture, 96-well plates, 1 week, cell density versus water control
Lemna tissues = settings: Vesonder et al. 1992; cited from earlier work
tomato = settings: Lamprecht et al. 1994; cited from earlier work
FB1 Hydrolase activity = test: Effect of various treatments on modification of FB1 by E. spinifera esterase (culture filtrates); format: biochemical, Exophiala spinifera; set-up: key: − = no hydrolysis; ± = trace amount of hydrolysis; + = incomplete hydrolysis; ++ = incomplete hydrolysis; +++ = complete hydrolysis; settings: then incubated with FB1 overnight at 37° C.
Experimental: (§1) Analytical thin-layer chromatography was carried out on 100% silanized C18 silica plates (Sigma #T-7020; 10×10 cm; 0.1 mm thick) by a modification of the published method of Rottinghaus (Rottinghaus, G. E., Coatney, C. E., and Minor, H. C., A rapid, sensitive thin layer chromatography procedure for the detection of fumonisin b-1 and b-2, J Vet Diagn Invest, 4, 326 (1992), and herein incorporated by reference).
(§2) Sample lanes were pre-wet with methanol to facilitate sample application. After application of from 0.1 to 2 μl of aqueous sample, the plates were air-dried and developed in MeOH:4% KCl (3:2) or MeOH:0.2 M KOH (3:2) and then sprayed successively with 0.1 M sodium borate (pH 9.5) and fluorescamine (0.4 mg/ml in acetonitrile). Plates were air-dried and viewed under long wave UV.
The esterase isolated from E. spinifera was then subjected to other treatments, including proteases, to determine whether and how the enzyme would function in various environments.

maize callus = settings: solid medium; Van Asch et al. 1992; cited from earlier work
[2] = Hydrolysis of fumonisin B1 by commercial esterases and hydrolases; format: biochemical; set-up: key: − = no hydrolysis; ± = trace amount of hydrolysis; + = incomplete hydrolysis; ++ = incomplete hydrolysis; +++ = complete hydrolysis; settings: assay pH 8.0; overnight at 37° C. with 1 mg/ml fumonisin
Experimental: as §1, §2
The fumonisin esterase isolated from E. spinifera and R. atrovirens was compared with other known esterases from various sources as supplied by commercial vendors.

[3] = treatment 0.01 mg/ml, 16 hr, 37° C., pH 5.2

With `CCCC[C@@H](C)[C@@H](O)[C@@H](O)C[C@@H](C)C[C@H](O)CCCC[C@@H](O)C[C@H](O)[C@H](C)N` [AP1] the “Injury of maize coleoptiles” value (maize coleoptiles; 1.5 mM) was “+”, the “Injury of maize coleoptiles” value (maize coleoptiles; .0005 mM) was “−” and the “Injury of maize coleoptiles” value (maize coleoptiles; .0015 mM) was “−”. For the same compound, the “Injury of maize coleoptiles” value (maize coleoptiles; .005 mM) was “−”, the “Injury of maize coleoptiles” value (maize coleoptiles; .015 mM) was “−” and the “Injury of maize coleoptiles” value (maize coleoptiles; .05 mM) was “−”. For the same compound, the “Injury of maize coleoptiles” value (maize coleoptiles; .15 mM) was “−”, the “Injury of maize coleoptiles” value (maize coleoptiles; .5 mM) was “−” and the “difference in toxicity between FB1 and AP1 to maize coleoptiles” value (maize coleoptiles; AP1 less toxic than FB1) was at least 30 fold. For the same compound, the “time to complete conversion to AP1-N1” value (AP1 catabolase; pH 9) was 30 min, the “difference in toxicity (FB1 versus AP1) to maize tissue cultured cells” value [1] was about 100 fold and the “concentration at which growth of BMS cells was inhibited” value [1] was 40000 nM. For the same compound, the “AP1 less toxic (than FB1) in Lemna tissues” value (Lemna tissues) was “approx. 40 fold” and the “reduction in toxicity to tomato by AP1 versus FB1” value (tomato) was about 100 fold.
In the case of `[Ca+2]` [Ca^++], the “FB1 Hydrolase activity” value (FB1 Hydrolase activity; treatment 50 mM) was “+++”.
In the case of `O[C@@H](CS)[C@@H](O)CS` [DTT], the “FB1 Hydrolase activity” value (FB1 Hydrolase activity; treatment 25 mM) was “+++”.
With `O=C(O)CN(CCN(CC(=O)O)CC(=O)O)CC(=O)O` [EDTA] the “FB1 Hydrolase activity” value (FB1 Hydrolase activity; treatment 50 mM) was “++”.
For `CCCC[C@@H](C)[C@@H](OC(=O)C[C@@H](CC(=O)O)C(=O)O)[C@H](C[C@@H](C)C[C@H](O)CCCC[C@@H](O)C[C@H](O)[C@H](C)N)OC(=O)C[C@@H](CC(=O)O)C(=O)O` [FB1, Fumonisin B1], the “Injury of maize coleoptiles” value (maize coleoptiles; 1.5 mM) was “+”, the “Injury of maize coleoptiles” value (maize coleoptiles; .0005 mM) was “−” and the “Injury of maize coleoptiles” value (maize coleoptiles; .0015 mM) was “−”. For the same compound, the “Injury of maize coleoptiles” value (maize coleoptiles; .005 mM) was “−”, the “Injury of maize coleoptiles” value (maize coleoptiles; .05 mM) was “+” and the “Injury of maize coleoptiles” value (maize coleoptiles; .15 mM) was “+”. For the same compound, the “Injury of maize coleoptiles” value (maize coleoptiles; .5 mM) was “+”, the “modification by the crude extract (catabolase)” value (“modification” for short) (AP1 catabolase) was “not modified” and the “concentration at which growth of BMS cells was inhibited” value [1] was 400 nM. For the same compound, the “concentration giving significant inhibition of maize callus” value (maize callus) was 1400 nM.
In the case of `[Mg+2]` [Mg^++], the “FB1 Hydrolase activity” value (FB1 Hydrolase activity; treatment 50 mM) was “+++”.
With `O=S(=O)(F)Cc1ccccc1` [PMSF, Phenylmethyl sulfonyl fluoride] the “FB1 Hydrolase activity” value (FB1 Hydrolase activity; treatment 10 mM) was “+++”.
With `CCCCCCCCCCCCCC[C@@H](O)[C@@H](O)[C@@H](N)CO` [Phytosphingosine] the “modification” value (AP1 catabolase) was “apparently not modified”.
For `CCCCCCCCCCCCC/C=C/[C@@H](O)[C@@H](N)CO` [Sphingosine], the “modification” value (AP1 catabolase) was “apparently not modified”.
For `CCCCCCCCCCCCCCC[C@@H](O)[C@@H](N)CO` [sphinganine], the “modification” value (AP1 catabolase) was “apparently not modified”.
For “Cholinesterase, butyryl: EC 3.1.1.8, Horse serum, highly purified”, the FB1 hydrolysis [2] was “−”.
With Chymotrypsin the “FB1 Hydrolase activity” value (FB1 Hydrolase activity; [3]) was “++”.
With Trypsin the “FB1 Hydrolase activity” value (FB1 Hydrolase activity; [3]) was “+++”.
